How the values were obtained:
[1] = target: T1, Prostaglandin G/H synthase 1 (Ovis aries, UniProt P05979)
T1 sequence (P05979 whole entry): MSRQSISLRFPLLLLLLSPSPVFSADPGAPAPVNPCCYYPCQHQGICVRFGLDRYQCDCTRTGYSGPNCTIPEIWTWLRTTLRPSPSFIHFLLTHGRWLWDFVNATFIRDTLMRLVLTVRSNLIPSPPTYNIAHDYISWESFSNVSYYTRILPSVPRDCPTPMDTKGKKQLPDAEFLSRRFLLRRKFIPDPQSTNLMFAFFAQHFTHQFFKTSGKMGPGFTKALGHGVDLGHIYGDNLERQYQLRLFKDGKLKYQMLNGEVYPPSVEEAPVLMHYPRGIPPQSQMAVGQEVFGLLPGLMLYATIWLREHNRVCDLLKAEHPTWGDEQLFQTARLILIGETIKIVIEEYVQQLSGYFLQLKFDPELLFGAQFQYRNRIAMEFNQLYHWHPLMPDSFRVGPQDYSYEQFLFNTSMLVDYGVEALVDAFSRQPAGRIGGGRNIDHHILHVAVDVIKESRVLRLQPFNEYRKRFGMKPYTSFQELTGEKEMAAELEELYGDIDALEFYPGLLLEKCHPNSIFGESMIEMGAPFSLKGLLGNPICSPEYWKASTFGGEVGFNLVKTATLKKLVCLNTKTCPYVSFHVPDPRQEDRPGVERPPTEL
Description: In vitro inhibition against ovine Prostaglandin G/H synthase 1

[2] = target: T2, Prostaglandin G/H synthase 1 (Ovis aries) (UniProt P05979); experiment: In vitro selectivity ratio of Prostaglandin G/H synthase 1 to Prostaglandin G/H synthase 2
T2 sequence (whole entry): T1 sequence (P05979 whole entry)

Row | IC50 [1] | Ratio [2] | SMILES
1 | 14.7 µM | < 0.52 | COc1cc(-c2ccccc2)c(-c2ccc(S(C)(=O)=O)cc2)c(=O)o1
2 | 8 µM |  | CCc1cc(-c2ccccc2)c(-c2ccc(S(C)(=O)=O)cc2)c(=O)o1
3 | 341 µM |  | CC(C)c1cc(-c2ccccc2)c(-c2ccc(S(C)(=O)=O)cc2)c(=O)o1
4 | 281 µM |  | CCOc1cc(-c2ccccc2)c(-c2ccc(S(C)(=O)=O)cc2)c(=O)o1
5 | > 100 µM | 35.7 | CSc1cc(-c2ccccc2)c(-c2ccc(S(C)(=O)=O)cc2)c(=O)o1
6 | > 100 µM |  | CC(C)Sc1cc(-c2ccccc2)c(-c2ccc(S(C)(=O)=O)cc2)c(=O)o1
7 | 615 µM |  | Cc1cc(-c2ccccc2)c(-c2ccc(S(C)(=O)=O)cc2)c(=O)o1
8 | 4 µM | 2 | CC(C)Oc1cc(-c2ccccc2)c(-c2ccc(S(C)(=O)=O)cc2)c(=O)o1
9 | 386 µM |  | CCSc1cc(-c2ccccc2)c(-c2ccc(S(C)(=O)=O)cc2)c(=O)o1
